# Marks after values point to notes of the source that are not given here.
# What was measured:
# Assay type in all cases: in vivo, rat
# Parkinson's disease [1] = assay: Y-maze test in rats with reserpine-induced Parkinson's disease; settings: 25 mg/kg, p.o. + Reserpine (4 mg/kg, s.c.); Y maze; Mean ± SEM, n = 6
# Source text: (§1) The induction of Parkinson's disease and measurement of other parameters were done as per the reported protocol (Santos et al., Cognitive, motor and tyrosine hydroxylase temporal impairment in a model of parkinsonism induced by reserpine. Behav Brain Res. 2013; 253:68-77 and Shishehbore et al. A novel kinetic spectrophotometric method for the determination of dopamine in biological and pharmaceutical samples. J Chem. 2013; 2013:1-6). Induction of Parkinson's disease was done by administering Resperine, which inhibits the monoamine vesicular transporters, thus decreasing the levels of monoamine neurotransmitters in the brain. Following pretreatment for 14 days with Gingerenone A, the rat groups received subcutaneous injections of reserpine (4 mg/kg) for the final five days of the treatment regimen. Resperine (5 mg) was dissolved in 1 ml of 1% acetic acid and then diluted tenfold with distilled water to achieve a final concentration of 500 μg/ml. The normal control group received saline with 1% acetic acid […], administered from day 10 to day 14. Thirty minutes following the administration of reserpine on the 14th day, behavioural assessments were conducted using the Open Field test, Y Maze, and Catalepsy tests to evaluate changes. Rats administered with Carbidopa, a known drug for the management of Parkinson's disease was also used for comparison. Upon completion of the study, brains were harvested for biochemical analyses and histopathological studies. The experimental group is depicted in table 10.
# Y-maze test—In the Y-maze test, spontaneous alterations serve as an indicator of working short-term memory.
# The maze consisted of a triangular central area with three equilateral arms labeled A, B, and C, each measuring 35 cm in length, 25 cm in height, and 10 cm in width. During the test, each rat was placed in the central area, facing one of the arms. An entry was scored when all four paws of the rat entered an arm. Spontaneous alterations in behavior were defined as consecutive entries into different arms (e.g., ABC, BCA, or CAB, but not CAC). The maximum number of spontaneous alterations ([…]) and the percentage of spontaneous alterations (actual number of alterations divided by the maximum alterations, multiplied by 100) were calculated for each rat (Kraeuter et al., The Y-Maze for Assessment of Spatial Working and Reference Memory in Mice. Methods Mol Biol. 2019; 1916:105-111).
# Parkinson's disease [2] = assay: Open field test in rats with reserpine-induced Parkinson's disease; settings: 25 mg/kg, p.o. + Reserpine (4 mg/kg, s.c.); open field; Mean ± SEM, n = 6
# Source text: as §1
# Open filed test—The test was conducted as per protocol described by Saleem et al., Pharmacological Potential of the Standardized Methanolic Extract of Prunus armeniaca L. in the Haloperidol-Induced Parkinsonism Rat Model. Evid Based Complement Alternat Med. 2022:29; 3697522. doi: 10.1155/2022/3697522. This test was conducted to assess the locomotor and exploratory behaviors of the experimental rats. A square-shaped wooden box measuring 100 cm in width, 100 cm in […], and 45 cm in height was constructed using plywood material, painted white, with a black-lined floor divided into 25 blocks. The rats were placed in the center of the field for a duration of 5 minutes and allowed to explore the box freely. The number of squares crossed, both centrally and horizontally, along with the total number of crossings, instances of defecation, freezing behavior, and postures were recorded during this period. Normal animals readily and quickly acclimate to the chamber and try to explore the center area of the squares.
# Parkinson's disease [3] = assay: Catalepsy test in rats with reserpine-induced Parkinson's disease; parameters: catalepsy score at 30 min / catalepsy score at 60 min / catalepsy score at 120 min: unit not given here; settings: 25 mg/kg, p.o. + Reserpine (4 mg/kg, s.c.), Mean ± SEM, n = 6
# Source text: as §1
# NeuroMol Med. 202022(2):314-330. Catalepsy in rats' manifests as an unresponsiveness to external stimuli accompanied by muscle rigidity. During the catalepsy test, rats were positioned on a wooden bar elevated 3-9 cm above the surface, with their forelimbs resting on it after administration of reserpine. The time taken for the rats to correct their posture was recorded as an indicator of catalepsy. Catalepsy ceased either when the rats climbed up the bar or when their forelimbs touched the floor. Observations were made at 30, 60, and 120 minutes after administration. All assessments were conducted in a quiet environment at a temperature of 23-25 degrees Celsius, with a maximum observation time of 5 minutes per trial.
# Fibrinogen = assay: Inflammatory marker fibrinogen (ELISA), AlCl3 Alzheimer's model; settings: 5 mg/kg, p.o. + AlCl3 (100 mg/kg, i.p.); Mean ± SEM, n = 6
# Source text: (§2) The inflammatory markers Fibrinogen, IL-1β were estimated using ELISA kit (Krishgen Biosystems, India).
# Alzheimer's disease [4] = assay: Morris water maze (MWM) test in rats with AlCl3-induced Alzheimer's disease; settings: 5 mg/kg, p.o. + AlCl3 (100 mg/kg, i.p.); MWM at 17th day; Mean ± SEM, n = 6
# Description: Morris water maze (MWM)—This test was performed as per protocol established by Ishola et al., Protective role of Spondiasmombin leaf and Cola acuminata seed extracts against scopolamine-induced cognitive dysfunction. Alexandria J Med. 2018; 54(1):27-39. MWM is a round water tank “diameter: 110 cm and height: 60 cm” consisting of a white surface and that is filled using opaque water (Temp. 26±2° C.) to a distance (depth) of 30 cm. The MWM tank circle is divided into 4 equal quadrants [North Quadrant 1, East Quadrant 2, West Quadrant 3, and South Quadrant 4]. Further, it consists of a 10 cm diameter platform in a constant position. Index of memory improvement is measured by the Escape Latency Time (ELT)—which is the time the animal takes to find the platform.
# The MWM plays an important role in the testing of learning and memory in rodent models of Alzheimer's Disease. It is used to test hippocampal-dependent learning, including acquisition of spatial memory and long-term spatial memory (Bromley-Brits et al., Morris water maze test for learning and memory deficits in Alzheimer's disease model mice, J Vis Exp., 2011 Jul. 20:(53):2920). In this study, learning was impaired in the Alzheimer's group.
# Alzheimer's disease [5] = assay: Elevated plus maze (EPM) test in rats with AlCl3-induced Alzheimer's disease; settings: 5 mg/kg, p.o. + AlCl3 (100 mg/kg, i.p.), Mean ± SEM, n = 6
# Description: Elevated plus maze (EPM)—Elevated plus maze (EPM)—This test was performed as per reported protocol (Bhuvanendran et al., Amelioration of cognitive deficit by Embelin in a Scopolamine-induced Alzheimer's disease-like condition in a rat model. Front Pharmacol. 2018:9(6):1-12 and Biradar et al., (2020) Experimental validation and network pharmacology evaluation to decipher the mechanism of action of Erythrina variegata L. bark against scopolamine-induced memory impairment in rats. Adv Tradit Med. 2020:26:1-4). EPM contains 2 closed and 2 open arms (four arms; equal dimensions of 50×10 cm). These 4 arms connect at central with a 10×10 cm square gap as an initial point. The transfer latency (TL) was recorded via stopwatch by keeping rats independently toward one side of the open arm. The EPM TL cut-off was set to 60 s throughout the study. […] Index of memory improvement is measured as a drop of transfer Latency (TL) by test drug.
# The elevated plus maze is a test that is widely used to assess the anti-anxiety effects of test substances. As the test measures open arm activity, an increase in open arm activity (duration and/or entries) reflects anti-anxiety behaviour (Walf et al., The use of the elevated plus maze as an assay of anxiety-related behavior in rodents, Nat Protoc. 2007; 2(2): 322-328). In the present study, inducing Alzheimer's in the animals increased their anxiety which was reduced by the administration on Gingerenone A (Table 3).
# Apolipoprotein E = Apolipoprotein E level in plasma (ELISA), AlCl3 Alzheimer's model; settings: 5 mg/kg, p.o. + AlCl3 (100 mg/kg, i.p.); plasma; Mean ± SEM, n = 6
# Source text: (§3) The levels of Tau, β-amyloid (1-42) and Apolipoprotein E were estimated. using ELISA kit (Krishgen Biosystems, India). All the protein biomarkers of AD were elevated in the AD control group.
# IL-1β = assay: Inflammatory marker IL-1β (ELISA), AlCl3 Alzheimer's model; settings: 5 mg/kg, p.o. + AlCl3 (100 mg/kg, i.p.); n = 6
# Source text: as §2
# β-amyloid (1-42) = β-amyloid (1-42) level in plasma (ELISA), AlCl3 Alzheimer's model; settings: 5 mg/kg, p.o. + AlCl3 (100 mg/kg, i.p.); plasma; Mean ± SEM, n = 6
# Source text: as §3
Structure (SMILES),No of arm entries (Parkinson's disease [1]),Spontaneous alterations (%) (Parkinson's disease [1]),Freezing (Parkinson's disease [2]) [s],Number of central explorations (Parkinson's disease [2]),Number of squares crossed (Parkinson's disease [2]),catalepsy score at 30 min (Parkinson's disease [3]; 30 min),catalepsy score at 60 min (Parkinson's disease [3]; 60 min),catalepsy score at 120 min (Parkinson's disease [3]; 120 min),Fibrinogen (Fibrinogen) [ng/mL],Escape Latency Time (Alzheimer's disease [4]) [s],EPM at 16th day Transfer Latency (Alzheimer's disease [5]; 16th day) [s],EPM at 17th day Transfer Latency (Alzheimer's disease [5]; 17th day) [s],Apolipoprotein E (Apolipoprotein E) [ng/mL],IL-1β (IL-1β),β-amyloid (β-amyloid (1-42)) [pg/mL]
"C[C@@](Cc1ccc(O)c(O)c1)(NN)C(=O)O [Carbidopa, reference compound]",12.58 ± 1.04,27.31 ± 1.56,9.63 ± 0.60,20.25 ± 1.03,31.80 ± 3.18,1.52 ± 0.42,1.60 ± 0.70,1.45 ± 0.70,,,,,,,
"COc1cc2c(cc1OC)C(=O)C(CC1CCN(Cc3ccccc3)CC1)C2 (stereo not drawn) [Donepezil, reference compound]",,,,,,,,,16.77 ± 0.053,26.96 ± 2.58,18.57 ± 0.68,18.22 ± 0.92,6.96 ± 0.065,62.16** pg/ml,8.02 ± 0.043

# Source: patent US20260325464A1, “COMPOSITIONS FOR MODULATING THE EXPRESSION OF AQUAPORINS IN NEURODEGENERATIVE DISORDERS” (priority 2023, published 2026)
